The values below are quoted from earlier work in US7015235B2, “Acylated piperidine derivatives as melanocortin-4 receptor agonists” (priority 2001, dated 2006).

The subject of this data set is men.

`Cc1ccc(N(CC2=NCCN2)c2cccc(O)c2)cc1` [phentolamine]: for the setting “after an oral dose”, the duration of effect is 2 h and the onset of action was 5 to 30 min. The “share of men/patients with adequate response” value (oral) is 35–40%.
